Source: patent US20060233935A1, “Rhamnolipids in bakery products” (priority 2002, published 2006)

Assay: Non-dairy cream filling evaluation (Example 16)
Conditions: 0.01% (w/w) in liquid preparation
Method: Polysorbate 60 has been replaced by rhamnolipids in non-dairy cream filling for pastries.
The following preparation process was used: The starch is mixed with the water, sugar and glucose syrup are added together with the emulsifier and titanium dioxide. After mixing until homogenous all the other ingredients are added and mixed again. The total mixture is heated until jellification of the starch.
Bake stability (180° C., 30 minutes), color, taste, speed of incorporation of fat into the mixture and possible separation of fat during conservation are evaluated (Table 16).

Stability during conservation: Stable during
Substance: Polysorbate 60
